From ChEMBL document CHEMBL1154209, “Triple recognition of B-DNA” (Bioorg Med Chem Lett, 2009)
The source made the active and inactive calls. The rule behind the calls is not given here.

Key:
Type in all cases: nucleic-acid assay
Nucleic Acid [1] = assay: Binding affinity to duplex DNA dA22.dT22 assessed as change in melting temperature at 3 uM by UV analysis at 260 nm
Nucleic Acid [2] = assay: Binding affinity to duplex DNA polydA:polydT assessed as decrease in viscosity at 200 uM
Nucleic Acid [3] = assay: Binding affinity to duplex DNA polydA:polydT assessed as increase of CD signal at 360nm and at 200 uM compound concentration

| SMILES | ΔTm (Nucleic Acid [1]) [°C] | Activity (Nucleic Acid [2]) | Activity (Nucleic Acid [3]) |
| --- | --- | --- | --- |
| CN1CCN(c2ccc3[nH]c(-c4ccc5[nH]c(-c6ccc(OCCOCCOCCN(CCOCCOCCN)C(=O)CCCc7ccc8ccc9cccc%10ccc7c8c9%10)cc6)nc5c4)nc3c2)CC1 | 16 |  |  |
| Nc1ccc2ccc3cccc4ccc1c2c34 | 2 |  |  |
| CN1CCN(c2ccc3[nH]c(-c4ccc5[nH]c(-c6ccc(OCCOCCOCCN(CCOCCOCCNC(=S)NCCSCC[C@H]7O[C@@H](O[C@H]8[C@H](O)[C@@H](N)C[C@@H](N)[C@@H]8O[C@H]8O[C@H](CN)[C@@H](O)[C@H](O)[C@H]8N)[C@H](O)[C@@H]7O[C@@H]7O[C@H](CN)[C@H](O)[C@@H](O)[C@@H]7N)C(=O)CCCc7ccc8ccc9cccc%10ccc7c8c9%10)cc6)nc5c4)nc3c2)CC1 | 35 | Active | Active |
| NC[C@@H]1O[C@H](O[C@H]2[C@@H](O)[C@H](O[C@@H]3[C@@H](O)[C@H](N)C[C@H](N)[C@H]3O[C@H]3O[C@H](CN)[C@@H](O)[C@H](O)[C@H]3N)O[C@@H]2CO)[C@H](N)[C@@H](O)[C@@H]1O | 0 |  |  |
| CN1CCN(c2ccc3[nH]c(-c4ccc5[nH]c(-c6ccc(OCCOCCOCCOCCOCCOCCNC(=S)NCCSCC[C@H]7O[C@@H](O[C@H]8[C@H](O)[C@@H](N)C[C@@H](N)[C@@H]8O[C@H]8O[C@H](CN)[C@@H](O)[C@H](O)[C@H]8N)[C@H](O)[C@@H]7O[C@@H]7O[C@H](CN)[C@H](O)[C@@H](O)[C@@H]7N)cc6)nc5c4)nc3c2)CC1 | 24 | Active | Active |
| CN1CCN(c2ccc3[nH]c(-c4ccc5[nH]c(-c6ccc(O)cc6)nc5c4)nc3c2)CC1 | 22 |  |  |
| NC[C@H]1O[C@@H](O[C@H]2[C@@H](O)[C@H](O[C@H]3[C@H](O)[C@@H](N)C[C@@H](N)[C@@H]3O[C@H]3O[C@H](CN)[C@@H](O)[C@H](O)[C@H]3N)O[C@@H]2CCSCCNC(=S)NCCOCCOCCNC(=O)CCCc2ccc3ccc4cccc5ccc2c3c45)[C@@H](N)[C@H](O)[C@H]1O | 5 |  |  |
